Assay results reported in US20260007680A1, “Compounds and Their Use as PDE4 Activators” (Mironid Limited, priority 2022, published 2026).

Tested on: m-IMCD3 cells
Experiment: Inhibition of PGE2-stimulated in vitro cyst formation in 3D culture of m-IMCD3 cells (Experiment 4)
Assay type: cell-based, mouse
Conditions: Mus musculus, mIMCD3, 144 h, 10 μM test compound, mean cyst area compared to 100% for (DMSO + PGE2) and 0% for DMSO control, read-out: % Cyst area* after incubation with 10 μM test compound
Procedure: HEK 293 and MDCK cells (Public Health England, Cell Culture Collections) were maintained in Dulbecco's Modified Eagle's Medium (DMEM) supplemented with 10% (v/v) fetal bovine serum (FBS) (Seralab), 2 mM L-glutamine and 100 U/ml penicillin streptomycin cocktail (ThermoFisher); termed complete media. Clonal HEK 293 cell lines were maintained in complete media supplemented with 0.6 mg/mL G418 (Enzo Life Sciences). Mouse inner medullary collecting duct (m-IMCD3) cells [American Type Culture Collection (ATCC)] were maintained in media consisting of DMEM/Hams F-12 50/50 Mix (DMEM F12; Corning) supplemented with penicillin streptomycin cocktail (100 U/ml) and FBS (10% v/v) (DMEM F12-10% FBS).
The mouse Inner Medullary Collecting Duct cell line (m-IMCD3) spontaneously forms cystic spheroids in 3D culture with a Type 1 collagen/Matrigel extracellular matrix. This process can be stimulated with agents which raise intracellular cAMP and is used as an in vitro model for the formation of cystic structures in the kidneys of patients with ADPKD.
Rat Collagen I (Fisher Scientific) is prepared on ice by neutralising with 1 M NaOH and diluting with a 2×volume of DMEM/F12+10% FBS. This is mixed 1:1.1 with ice cold Matrigel (Corning) for coating plates (coating mix), and 1:0.93 with Matrigel for cell plating (plating mix).
The assay is conducted in the wells of a 96-well plate culture dish using a total volume of 130 μL of collagen/Matrigel/DMEM F12-10% FBS suspension in growth media for each matrix plug per individual well. Initially, 30 μL of collagen/Matrigel/DMEM F12-10% FBS (coating mix) is added into the well of a 96 well plate and the collagen is set to a gel by incubating at 37° C. for at least 15 minutes. A second layer of 100 μL collagen/Matrigel suspension (plating mix) containing m-IMCD3 cells (2.75×10^6 m-IMCD3 cells per 96-well plate) is layered over the coating mix and the collagen/Matrigel/cell mix again set to a gel by incubating at 37° C. Cell cultures are maintained at 37° C. in an atmosphere of 5% CO2, 95% air.
Between 18 and 24 h after plating, test compound(s) as DMSO stock solutions [0.1% (v/v) final DMSO concentration] and PGE2 (100 nM final concentration) in DMEM F12-10% FBS are added in quadruplicate wells per condition. Media, together with the test compound and PGE2 are replenished after 2 or 3 days. After 6 days of culture z stack images of the wells are captured using the Nikon Eclipse Ti2-E microscope. Nikon General Analysis software is used to measure the following parameters in each well: the mean cyst area, the number of cysts, and the total cyst area.
PDE4 long form activators inhibited in vitro cyst formation in m-IMCD3 cells. Data are shown in FIG. 2 and Table 4 as mean cyst area (%), compared to 100% for (DMSO+PGE2) and 0% for DMSO control.

SMILES | activity at 10 µM [%]
O=C(NC1CCC(F)(F)CC1)c1ccc2nc(N3C4CCC3CNC4)sc2n1 [Example 116, 2-(3,8-diazabicyclo[3.2.1]octan-8-yl)-N-(4,4-difluorocyclohexyl)thiazolo[5,4-b]pyridine-5-carboxamide] | -1
CCN1CCN(c2nc3cc(C(=O)NC4CCCC4)ccc3o2)CC1 [Example 103, N-cyclopentyl-2-(4-ethylpiperazin-1-yl)benzo[d]oxazole-5-carboxamide] | -1
O=C(N[C@H]1CCOc2ccccc21)c1cnc2cc(C3CCNCC3)nn2c1 [Example 82, (S)—N-(chroman-4-yl)-2-(piperidin-4-yl)pyrazolo[1,5-a]pyrimidine-6-carboxamide] | 3
CCN1CCN(c2nc3ccc(C(=O)NC4CCCC4)cc3o2)CC1 [Example 108, N-cyclopentyl-2-(4-ethylpiperazin-1-yl)benzo[d]oxazole-6-carboxamide] | 24
O=C(NC1CCCC1)c1cnc2cc(N3C4CCC3CNC4)nn2c1 [Example 80, 2-(3,8-diazabicyclo[3.2.1]octan-8-yl)-N-cyclopentylpyrazolo[1,5-a]pyrimidine-6-carboxamide] | 14
CN1CCC(c2nc3ccc(C(=O)N[C@H]4CCOc5ccccc54)cn3n2)CC1 [Example 50, (S)—N-(chroman-4-yl)-2-(1-methylpiperidin-4-yl)-[1,2,4]triazolo[1,5-a]pyridine-6-carboxamide] | 6
CN1CCN(c2nc3cc(C(=O)N[C@H]4CCOc5ccccc54)ccn3n2)CC1 [Example 56, (S)—N-(chroman-4-yl)-2-(4-methylpiperazin-1-yl)-[1,2,4]triazolo[1,5-a]pyridine-7-carboxamide] | 14
CC(C)N1CCN(c2nc3ccc(C(=O)N[C@H]4CCOc5ccccc54)cn3n2)CC1 [Example 46, (S)—N-(chroman-4-yl)-2-(4-isopropylpiperazin-1-yl)-[1,2,4]triazolo[1,5-a]pyridine-6-carboxamide] | 4
CCN1CCC(c2cc3ncc(C(=O)N[C@H]4CCOc5ccccc54)cn3n2)CC1 [Example 84, (S)—N-(chroman-4-yl)-2-(1-ethylpiperidin-4-yl)pyrazolo[1,5-a]pyrimidine-6-carboxamide] | 7
Cn1c(-c2cccnc2)nc2cc(C(=O)N[C@H]3CCOc4ccccc43)ccc21 [Example 24, (S)—N-(chroman-4-yl)-1-methyl-2-(pyridin-3-yl)-1H-benzo[d]imidazole-5-carboxamide] | 21
O=C(N[C@H]1CCOc2ccccc21)c1ccn2nc(N3CCCCC3)nc2c1 [Example 59, (S)—N-(chroman-4-yl)-2-(piperidin-1-yl)-[1,2,4]triazolo[1,5-a]pyridine-7-carboxamide] | 26
O=C(NC1CCC(F)(F)CC1)c1cc2sc(N3C4CCC3CNC4)nc2cn1 [Example 120, 2-(3,8-diazabicyclo[3.2.1]octan-8-yl)-N-(4,4-difluorocyclohexyl)thiazolo[4,5-c]pyridine-6-carboxamide] | 29
Cn1c(N2CCNCC2)nc2ccc(C(=O)N[C@H]3CCOc4ccccc43)cc21 [Example 31, (S)—N-(chroman-4-yl)-1-methyl-2-(piperazin-1-yl)-1H-benzo[d]imidazole-6-carboxamide] | 3
CCN1CCN(c2nc3ccc(C(=O)N[C@H]4CCOc5ccccc54)cn3n2)CC1 [Example 45, (S)—N-(chroman-4-yl)-2-(4-ethylpiperazin-1-yl)-[1,2,4]triazolo[1,5-a]pyridine-6-carboxamide] | 15
CN1CCN(c2cc3ncc(C(=O)NC4CCCCC4)cn3n2)CC1 [Example 77, N-cyclohexyl-2-(4-methylpiperazin-1-yl)pyrazolo[1,5-a]pyrimidine-6-carboxamide] | 0
CCN1CCN(c2cc3ncc(C(=O)N[C@H]4CCc5ccccc54)cn3n2)CC1 [Example 75, (S)—N-(2,3-dihydro-1H-inden-1-yl)-2-(4-ethylpiperazin-1-yl)pyrazolo[1,5-a]pyrimidine-6-carboxamide] | 19
